Calls of active or inactive are those of the source. No rule for the calls is given here.
Biological target: P2X2/P2X3 heterotrimeric receptor (Homo sapiens) (UniProt Q9UBL9+P56373)
Assay: Antagonist activity against human P2X2/3 receptor expressed in CHOK1 cells assessed as inhibition of alpha,beta-meATP-induced calcium response incubated for 20 mins by Fluo-3AM dye based FLIPR assay
Type: functional, cell-based
Conditions: CHO-K1

Row | inhibition | SMILES
1 | Active | CCC(C)C(=O)N(C)c1cc(C(=O)NC(C)c2cnccn2)cc(-c2ccc(C)cc2)c1 (configuration not stated)
2 | Active | COCC(C)NC(=O)c1cc(NC(=O)c2ccccn2)cc(-c2ccc(C)cc2)c1 (configuration not stated)
3 | Active | COCC(C)NC(=O)c1cc(NC(=O)C2CCCCC2)cc(-c2ccc(C)cc2)c1 (configuration not stated)
4 | Active | Cc1ccc(-c2cc(C(=O)NC(C)c3cnccn3)cc(N(C)C(=O)C3CCCC3)c2)cc1 (configuration not stated)
5 | Active | CCC(=O)N(C)c1cc(C(=O)N[C@H](C)CN2CCOCC2)cc(-c2ccc(C)cc2)c1
6 | Active | COCC(C)NC(=O)c1cc(NC(=O)c2cscc2OC)cc(-c2ccc(C)cc2)c1 (configuration not stated)
7 | Active | CCN(C(=O)C(C)C)c1cc(C(=O)NC(C)c2cnccn2)cc(-c2ccc(C)cc2)c1 (configuration not stated)
8 | Active | CCN(C(=O)C1CCOCC1)c1cc(C(=O)NC(C)c2cnccn2)cc(-c2ccc(C)cc2)c1 (configuration not stated)
9 | Active | COCC(C)NC(=O)c1cc(NC(=O)c2ccc(C)s2)cc(-c2ccc(C)cc2)c1 (configuration not stated)
10 | Active | Cc1ccc(-c2cc(C(=O)N[C@@H](C)CO)cc(N(C)C(=O)C3CCCC3)c2)cc1
11 | Active | CCC(=O)N(C)c1cc(C(=O)NC(C)COC)cc(-c2ccc(C)cc2)c1 (configuration not stated)
12 | Active | CC(=O)N(c1cc(C(=O)NC(C)c2cnccn2)cc(-c2ccc(C)cc2)c1)c1ccncn1 (configuration not stated)
13 | Active | Cc1ccc(-c2cc(C(=O)NC(C)c3cnccn3)cc(N(C)C(=O)C(C)(C)C)c2)cc1 (configuration not stated)
14 | Active | COCC(C)NC(=O)c1cc(NC(=O)c2ccc(C)cc2C)cc(-c2ccc(C)cc2)c1 (configuration not stated)
15 | Active | CCC(C)(C)C(=O)N(C)c1cc(C(=O)NC(C)c2cnccn2)cc(-c2ccc(C)cc2)c1 (configuration not stated)
16 | Active | Cc1ccc(-c2cc(C(=O)NCc3cnc(C)cn3)cc(N(C)C(=O)C(C)C)c2)nc1
17 | Active | CCN(C(=O)CC(C)C)c1cc(C(=O)NC(C)CO)cc(-c2ccc(C)cc2)c1 (configuration not stated)
18 | Active | CC(=O)N(C)c1cc(C(=O)NC(C)c2cnccn2)cc(-c2ccc(C)cc2)c1 (configuration not stated)
19 | Active | CC(C)C(=O)N(C)c1cc(C(=O)NC(C)c2cnccn2)cc(-c2ccc(F)cc2F)c1 (configuration not stated)
20 | Active | COCC(C)NC(=O)c1cc(NC(=O)c2cc(C)cs2)cc(-c2ccc(C)cc2)c1 (configuration not stated)
21 | Active | COCC(C)NC(=O)c1cc(NC(=O)c2cscn2)cc(-c2ccc(C)cc2)c1 (configuration not stated)
22 | Active | CCC(CC)C(=O)N(C)c1cc(C(=O)NC(C)c2cnccn2)cc(-c2ccc(C)cc2)c1 (configuration not stated)
23 | Active | Cc1ccc(-c2cc(C(=O)N[C@@H](C)CO)cc(N(C)C(=O)C(C)C)c2)nc1
24 | Active | COC[C@@H](C)NC(=O)c1cc(-c2ccc(F)cc2F)cc(N(C)C(=O)C(C)C)c1

Row | inhibition | SMILES
25 | Active | COCC(=O)N(C)c1cc(C(=O)NC(C)c2cnccn2)cc(-c2ccc(C)cc2)c1 (configuration not stated)
26 | Active | COCC(C)NC(=O)c1cc(NC(=O)c2cccs2)cc(-c2ccc(C)cc2)c1 (configuration not stated)
27 | Active | Cc1ccc(-c2cc(C(=O)NC(C)c3cnccn3)cc(N(C)C(=O)C(C)C)c2)c(F)c1 (configuration not stated)
28 | Active | CCN(C(=O)c1ccncc1)c1cc(C(=O)NC(C)COC)cc(-c2ccc(C)cc2)c1 (configuration not stated)
29 | Active | CCN(C(=O)OCC(C)C)c1cc(C(=O)NC(C)c2cnccn2)cc(-c2ccc(C)cc2)c1 (configuration not stated)
30 | Active | COCC(C)NC(=O)c1cc(NC(=O)c2cc(C)on2)cc(-c2ccc(C)cc2)c1 (configuration not stated)
31 | Active | CC(=O)N1CCC(C(=O)N(C)c2cc(C(=O)NC(C)c3cnccn3)cc(-c3ccc(C)cc3)c2)CC1 (configuration not stated)
32 | Active | COCC(C)NC(=O)c1cc(NC(=O)c2ccc(C(F)(F)F)cc2Cl)cc(-c2ccc(C)cc2)c1 (configuration not stated)
33 | Active | CCN(C(=O)OC)c1cc(C(=O)NC(C)c2cnccn2)cc(-c2ccc(C)cc2)c1 (configuration not stated)
34 | Active | COCC(C)NC(=O)c1cc(NC(=O)c2ccc(F)cc2Cl)cc(-c2ccc(C)cc2)c1 (configuration not stated)
35 | Active | CCN(C(=O)OC(C)C)c1cc(C(=O)NC(C)c2cnccn2)cc(-c2ccc(C)cc2)c1 (configuration not stated)
36 | Active | COCC(C)NC(=O)c1cc(NC(=O)c2sccc2C)cc(-c2ccc(C)cc2)c1 (configuration not stated)
37 | Active | CC(C)C(=O)N(C)c1cc(C(=O)N[C@@H](C)CO)cc(-c2ccc(Cl)cn2)c1
38 | Active | Cc1ccc(-c2cc(C(=O)NC(C)c3cnccn3)cc(N(C)C(=O)C(C)C)c2)cc1 (configuration not stated)
39 | Active | Cc1ccc(-c2cc(C(=O)NC(C)c3cnccn3)cc(N(C)C(=O)C3CCCCC3)c2)cc1 (configuration not stated)
40 | Active | CCN(C(=O)c1cccnc1)c1cc(C(=O)NC(C)c2cnccn2)cc(-c2ccc(C)cc2)c1 (configuration not stated)
41 | Active | COCC(C)NC(=O)c1cc(NC(=O)c2ccccc2)cc(-c2ccc(C)cc2)c1 (configuration not stated)
42 | Active | CCN(C(=O)COC)c1cc(C(=O)NC(C)c2cnccn2)cc(-c2ccc(C)cc2)c1 (configuration not stated)
43 | Active | COC[C@@H](C)NC(=O)c1cc(-c2ccc(Cl)cc2Cl)cc(N(C)C(=O)C(C)C)c1
44 | Active | Cc1ccc(-c2cc(C(=O)NCc3cnccn3)cc(N(C)C(=O)C(C)C)c2)cc1
45 | Active | Cc1ccc(-c2cc(NC(=O)C(C)C)cc(C(=O)NC(C)c3cnccn3)c2)cc1 (configuration not stated)
46 | Active | CCC(C)C(=O)N(C)c1cc(C(=O)N[C@@H](C)CO)cc(-c2ccc(C)cc2)c1 (some centres not stated)
47 | Active | Cc1ccc(-c2cc(C(=O)NCc3cnccn3)cc(N(C)C(=O)C(C)C)c2)c(Cl)c1
48 | Active | Cc1ccc(-c2cc(C(=O)NC(C)c3cnccn3)cc(N(C)C(=O)C(C)C)c2)nc1 (configuration not stated)

Row | inhibition | SMILES
49 | Active | COCC(C)NC(=O)c1cc(NC(=O)c2c(-c3ccccc3)noc2C)cc(-c2ccc(C)cc2)c1 (configuration not stated)
50 | Active | Cc1ccc(-c2cc(C(=O)NCc3cnc(C)cn3)cc(N(C)C(=O)C3(C)COC3)c2)nc1
51 | Active | COCC(C)NC(=O)c1cc(NC(=O)c2cc(C)nn2C)cc(-c2ccc(C)cc2)c1 (configuration not stated)
52 | Active | CC(C)C(=O)N(C)c1cc(C(=O)NC(C)c2cnccn2)cc(-c2ccc(Cl)cn2)c1 (configuration not stated)
53 | Active | CC(NC(=O)c1cc(-c2ccc(Cl)cc2)cc(N(C)C(=O)N2CCOCC2)c1)c1cnccn1 (configuration not stated)
54 | Active | Cc1ccc(-c2cc(C(=O)N[C@@H](C)CO)cc(N(C)C(=O)C(C)C)c2)cc1
55 | Active | Cc1ccc(-c2cc(C(=O)NCc3cnccn3)cc(N(C)C(=O)C(C)C)c2)c(F)c1
56 | Active | CCN(c1cc(C(=O)NC(C)c2cnccn2)cc(-c2ccc(C)cc2)c1)c1cnccn1 (configuration not stated)
57 | Active | COCC(C)NC(=O)c1cc(NC(=O)c2nc(C)oc2C)cc(-c2ccc(C)cc2)c1 (configuration not stated)
58 | Active | COCC(C)NC(=O)c1cc(NC(=O)c2ccco2)cc(-c2ccc(C)cc2)c1 (configuration not stated)
59 | Active | CCN(C(C)=O)c1cc(C(=O)NC(C)c2cnccn2)cc(-c2ccc(C)cc2)c1 (configuration not stated)
60 | Active | Cc1ccc(-c2cc(C(=O)N[C@@H](C)CO)cc(N(C)C(=O)C(C)C)c2)c(F)c1
61 | Active | CC(C)C(=O)N(C)c1cc(C(=O)NC(C)c2cnccn2)cc(-c2ccc(Cl)cc2Cl)c1 (configuration not stated)
62 | Active | Cc1ccc(-c2cc(C(=O)NC(C)c3cnccn3)cc(N(C)C(=O)c3snnc3C)c2)cc1 (configuration not stated)
63 | Active | CC(NC(=O)c1cc(-c2ccc(Cl)cc2)cc(N(C)C(=O)N(C)C)c1)c1cnccn1 (configuration not stated)
64 | Active | CCN(C(=O)C(C)C)c1cc(C(=O)N[C@@H](C)CO)cc(-c2ccc(C)cc2)c1
65 | Active | CC(C)C(=O)N(C)c1cc(C(=O)NCc2cnccn2)cc(-c2ccc(Cl)cn2)c1
66 | Active | CCC(=O)N(c1cc(C(=O)NC(C)c2cnccn2)cc(-c2ccc(C)cc2)c1)c1ccncn1 (configuration not stated)
67 | Active | Cc1ccc(-c2cc(C(=O)N[C@@H](C)CO)cc(N(C)C(=O)C(C)C)c2)c(Cl)c1
68 | Active | CCN(C(=O)CC(C)C)c1cc(C(=O)NC(C)c2cnccn2)cc(-c2ccc(C)cc2)c1 (configuration not stated)
69 | Active | Cc1ccc(-c2cc(C(=O)NC(C)c3cnccn3)cc(N(C)C(=O)C(C)C)c2)c(Cl)c1 (configuration not stated)
70 | Active | Cc1ccc(-c2cc(C(=O)NC(C)c3cnccn3)cc(N(C)C(=O)C3CCOCC3)c2)cc1 (configuration not stated)
71 | Active | Cc1ccc(-c2cc(C(=O)NC(C)c3cnccn3)cc(N(C(=O)C(C)C)c3ccncn3)c2)cc1 (configuration not stated)
72 | Active | CCNC(=O)N(C)c1cc(C(=O)NC(C)c2cnccn2)cc(-c2ccc(Cl)cc2)c1 (configuration not stated)
